Assay [1] has as its system HCT-116. Nature of the assay: Induction of cell cycle arrest in CDK2 knocked out human HCT116 cells assessed as accumulation at G2/M phase at 5 to 20 uM after 24 hrs by propidium iodide-staining based flow cytometry. Type of assay: functional. (A flow cytometer gives signals particle by particle.)
Assay [2] concerns HCT-116. Nature of the assay: Induction of cell cycle arrest in human HCT116 cells assessed as accumulation at G2/M phase after 24 hrs by propidium iodide-staining based flow cytometry. Type of assay: functional.
The test system of assay [3] is HCT-116. As to the kind of experiment: Induction of cell cycle arrest in human HCT116 cells assessed as accumulation at G2/M phase at 5 to 20 uM after 24 hrs by propidium iodide-staining based flow cytometry. The assay is classed as functional.
Assay [4] deals with HCT-116. Nature of the assay: Induction of cell cycle arrest in human HCT116 cells assessed as accumulation at G2/M phase at 3.9 to 19.8 uM after 24 hrs by propidium iodide-staining based flow cytometry relative to control. The assay is classed as functional.
In assay [5] the target is Cyclin-dependent kinase 4/cyclin D1 (Homo sapiens, UniProt P11802). Nature of the assay: biochemical.
Chain of Cyclin-dependent kinase 4/cyclin D1 (P11802 whole entry): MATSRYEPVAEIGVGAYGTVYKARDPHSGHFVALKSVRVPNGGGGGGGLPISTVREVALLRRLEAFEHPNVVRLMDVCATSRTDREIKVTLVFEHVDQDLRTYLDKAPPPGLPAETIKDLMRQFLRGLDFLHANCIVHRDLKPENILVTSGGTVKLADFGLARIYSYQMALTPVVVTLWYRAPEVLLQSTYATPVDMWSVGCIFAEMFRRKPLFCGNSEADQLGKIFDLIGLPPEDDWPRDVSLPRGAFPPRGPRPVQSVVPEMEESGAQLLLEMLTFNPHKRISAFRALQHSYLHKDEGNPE
Chain of Cyclin-dependent kinase 4/cyclin D1 (P24385 whole entry, further chain): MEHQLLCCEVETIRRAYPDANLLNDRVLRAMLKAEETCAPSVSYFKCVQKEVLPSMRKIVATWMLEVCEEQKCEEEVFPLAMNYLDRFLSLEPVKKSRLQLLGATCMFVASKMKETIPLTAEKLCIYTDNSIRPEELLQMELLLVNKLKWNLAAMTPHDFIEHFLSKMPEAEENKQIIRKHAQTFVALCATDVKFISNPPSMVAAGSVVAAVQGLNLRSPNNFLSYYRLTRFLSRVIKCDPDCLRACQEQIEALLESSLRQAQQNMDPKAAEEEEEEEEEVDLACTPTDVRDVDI
Assay [6] deals with Cyclin-dependent kinase 2/cyclin E1 (Homo sapiens, UniProt P24941). As to the kind of experiment: biochemical.
For assay [7], the target named is CDK7/Cyclin H/MNAT1 (Homo sapiens, UniProt P50613). As to the kind of experiment: biochemical.
Chain of CDK7/Cyclin H/MNAT1 (P51946 whole entry): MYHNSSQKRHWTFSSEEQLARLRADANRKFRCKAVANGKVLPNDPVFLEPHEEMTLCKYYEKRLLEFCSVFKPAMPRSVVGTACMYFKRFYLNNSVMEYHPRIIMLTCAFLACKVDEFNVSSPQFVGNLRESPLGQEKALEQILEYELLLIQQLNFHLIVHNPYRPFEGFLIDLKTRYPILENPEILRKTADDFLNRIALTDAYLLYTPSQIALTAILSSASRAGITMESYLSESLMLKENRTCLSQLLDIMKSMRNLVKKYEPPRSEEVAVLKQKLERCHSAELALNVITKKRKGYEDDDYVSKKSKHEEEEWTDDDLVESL
Chain of CDK7/Cyclin H/MNAT1 (P50613 whole entry): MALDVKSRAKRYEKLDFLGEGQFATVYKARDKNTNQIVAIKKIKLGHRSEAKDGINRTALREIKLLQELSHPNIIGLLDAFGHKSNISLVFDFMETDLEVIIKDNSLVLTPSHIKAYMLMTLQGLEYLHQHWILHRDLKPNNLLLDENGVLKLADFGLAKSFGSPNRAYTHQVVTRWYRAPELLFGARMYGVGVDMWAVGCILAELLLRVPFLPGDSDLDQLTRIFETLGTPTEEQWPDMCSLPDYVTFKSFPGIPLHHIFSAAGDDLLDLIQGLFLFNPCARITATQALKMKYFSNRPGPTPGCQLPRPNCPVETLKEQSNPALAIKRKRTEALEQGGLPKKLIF
Chain of CDK7/Cyclin H/MNAT1 (P51948 whole entry, further chain): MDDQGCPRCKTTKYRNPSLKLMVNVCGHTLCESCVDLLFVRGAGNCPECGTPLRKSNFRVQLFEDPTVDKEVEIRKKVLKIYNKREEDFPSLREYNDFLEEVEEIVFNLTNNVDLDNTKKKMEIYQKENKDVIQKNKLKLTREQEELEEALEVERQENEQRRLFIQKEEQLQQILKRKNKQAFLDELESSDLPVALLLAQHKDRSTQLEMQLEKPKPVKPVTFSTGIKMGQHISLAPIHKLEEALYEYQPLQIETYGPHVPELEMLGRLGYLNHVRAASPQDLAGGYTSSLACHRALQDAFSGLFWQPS
The target in assay [8] is CDK9/cyclin T1 (Homo sapiens, UniProt P50750). As to the kind of experiment: biochemical.
Chain of CDK9/cyclin T1 (O60563 whole entry): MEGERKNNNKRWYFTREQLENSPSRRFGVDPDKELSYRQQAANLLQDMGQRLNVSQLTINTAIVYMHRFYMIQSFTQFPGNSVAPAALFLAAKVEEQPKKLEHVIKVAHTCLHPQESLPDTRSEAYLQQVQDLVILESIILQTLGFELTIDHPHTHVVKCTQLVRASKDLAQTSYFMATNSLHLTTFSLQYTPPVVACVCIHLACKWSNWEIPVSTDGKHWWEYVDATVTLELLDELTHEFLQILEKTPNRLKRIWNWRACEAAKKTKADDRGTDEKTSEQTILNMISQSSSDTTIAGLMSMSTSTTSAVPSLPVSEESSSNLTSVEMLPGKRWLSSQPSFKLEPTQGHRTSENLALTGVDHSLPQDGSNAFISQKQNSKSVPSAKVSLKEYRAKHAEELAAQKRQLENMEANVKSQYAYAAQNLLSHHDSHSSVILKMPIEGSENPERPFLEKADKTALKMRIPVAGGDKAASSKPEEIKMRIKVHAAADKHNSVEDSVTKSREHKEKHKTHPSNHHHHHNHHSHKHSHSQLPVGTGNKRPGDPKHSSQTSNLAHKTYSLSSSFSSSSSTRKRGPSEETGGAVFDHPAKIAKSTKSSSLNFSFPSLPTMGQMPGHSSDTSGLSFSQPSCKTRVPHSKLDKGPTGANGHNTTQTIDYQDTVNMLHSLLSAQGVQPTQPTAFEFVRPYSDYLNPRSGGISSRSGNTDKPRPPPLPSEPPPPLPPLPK
Chain of CDK9/cyclin T1 (P50750 whole entry): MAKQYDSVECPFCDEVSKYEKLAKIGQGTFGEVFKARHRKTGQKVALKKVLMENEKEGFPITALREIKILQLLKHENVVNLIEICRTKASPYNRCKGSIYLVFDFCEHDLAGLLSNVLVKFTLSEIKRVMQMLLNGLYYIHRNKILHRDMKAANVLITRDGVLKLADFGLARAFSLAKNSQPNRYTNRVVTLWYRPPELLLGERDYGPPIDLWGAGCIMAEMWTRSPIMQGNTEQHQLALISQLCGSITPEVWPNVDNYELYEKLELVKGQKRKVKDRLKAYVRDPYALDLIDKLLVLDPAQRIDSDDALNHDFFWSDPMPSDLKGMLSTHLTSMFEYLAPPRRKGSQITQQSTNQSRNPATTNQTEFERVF
Assay [9] has as its target Cyclin-dependent kinase 5/CDK5 activator 1 (Homo sapiens, UniProt Q00535). Nature of the assay: biochemical.
The target of assay [10] is CDK2/Cyclin A2 (Homo sapiens, UniProt P24941).
Assay [11] deals with Cyclin-dependent kinase 1/cyclin B1 (Homo sapiens, UniProt P06493). Nature of the assay: biochemical.
Chain of Cyclin-dependent kinase 1/cyclin B1 (P06493 whole entry): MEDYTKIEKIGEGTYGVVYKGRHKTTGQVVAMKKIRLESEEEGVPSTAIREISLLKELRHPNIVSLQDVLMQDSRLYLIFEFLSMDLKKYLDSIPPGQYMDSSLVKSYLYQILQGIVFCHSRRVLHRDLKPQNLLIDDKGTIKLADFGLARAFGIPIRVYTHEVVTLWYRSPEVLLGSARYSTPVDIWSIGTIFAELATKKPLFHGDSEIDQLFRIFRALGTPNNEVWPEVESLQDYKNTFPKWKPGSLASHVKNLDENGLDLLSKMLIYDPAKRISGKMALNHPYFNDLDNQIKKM
Chain of Cyclin-dependent kinase 1/cyclin B1 (P14635 whole entry, further chain): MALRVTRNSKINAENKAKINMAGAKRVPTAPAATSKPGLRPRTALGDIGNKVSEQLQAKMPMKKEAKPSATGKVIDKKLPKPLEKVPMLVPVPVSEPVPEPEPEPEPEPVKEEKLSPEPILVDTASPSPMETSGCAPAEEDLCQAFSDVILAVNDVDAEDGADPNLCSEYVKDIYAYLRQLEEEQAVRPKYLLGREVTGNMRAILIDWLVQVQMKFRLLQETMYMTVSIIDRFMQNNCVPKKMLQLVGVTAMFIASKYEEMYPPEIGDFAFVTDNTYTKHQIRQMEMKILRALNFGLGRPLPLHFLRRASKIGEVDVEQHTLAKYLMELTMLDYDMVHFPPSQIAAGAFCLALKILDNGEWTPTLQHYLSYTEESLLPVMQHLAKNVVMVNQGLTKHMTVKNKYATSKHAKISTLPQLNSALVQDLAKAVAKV
For assay [12], the system named is HCT-116. As to the kind of experiment: Induction of cell cycle arrest in human HCT116 cells assessed as accumulation at G2/M phase at 19.8 to 100 uM after 24 hrs by propidium iodide-staining based flow cytometry relative to control. The assay is classed as functional.
For assay [13], the system named is HCT-116. Nature of the assay: Induction of cell cycle arrest in human HCT116 cells at 19.8 to 100 uM after 24 hrs by propidium iodide-staining based flow cytometry relative to control. The assay is classed as functional.
In assay [14] the target is Cyclin-dependent kinase 9 (Homo sapiens) (UniProt P50750). As to the kind of experiment: Inhibition of CDK9 in human HCT116 cells assessed as induction of dephosphorylation of RNA polymerase 2 S2/S5 residues at 250 to 500 nM after 24 hrs by Western blot analysis. The assay is classed as cell-based. (In general: A western blot detects proteins with antibodies after separation by electrophoresis.)
Chain of Cyclin-dependent kinase 9 (Homo sapiens) (P50750 whole entry): as the sequence (P50750 whole entry) above

Assay [15] relates to HCT-116. Nature of the assay: Induction of cell cycle arrest in human HCT116 cells assessed as accumulation at G2/M phase at 1.7 to 19.8 uM after 24 hrs by propidium iodide-staining based flow cytometry. The assay is classed as functional.
Assay [16] relates to HCT-116. As to the kind of experiment: Induction of cell cycle arrest in human HCT116 cells assessed as reduction in accumulation at G1 phase at 1.7 to 19.8 uM after 24 hrs by propidium iodide-staining based flow cytometry. Type of assay: functional.
Assay [17] concerns HCT-116. As to the kind of experiment: Induction of cell cycle arrest in human HCT116 cells assessed as reduction in accumulation at G1 phase 19.8 to 100 uM after 24 hrs by propidium iodide-staining based flow cytometry. Type of assay: functional.

Each structure is given as a SMILES string. Calls of active or inactive are those of the source. The calls are words filed in the database; no cut-off is given here. Bounds are passed on as bounds.

Chain of Cyclin-dependent kinase 5/CDK5 activator 1 (Q00535 whole entry): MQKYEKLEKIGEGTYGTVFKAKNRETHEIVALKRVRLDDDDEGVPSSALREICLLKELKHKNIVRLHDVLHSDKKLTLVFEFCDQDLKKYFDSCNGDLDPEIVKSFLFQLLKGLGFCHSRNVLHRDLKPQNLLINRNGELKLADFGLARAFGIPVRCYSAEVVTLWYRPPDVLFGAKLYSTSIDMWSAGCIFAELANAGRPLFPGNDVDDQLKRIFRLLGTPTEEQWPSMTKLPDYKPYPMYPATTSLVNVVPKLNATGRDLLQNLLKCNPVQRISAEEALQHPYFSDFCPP
Chain of Cyclin-dependent kinase 5/CDK5 activator 1 (Q15078 whole entry, further chain): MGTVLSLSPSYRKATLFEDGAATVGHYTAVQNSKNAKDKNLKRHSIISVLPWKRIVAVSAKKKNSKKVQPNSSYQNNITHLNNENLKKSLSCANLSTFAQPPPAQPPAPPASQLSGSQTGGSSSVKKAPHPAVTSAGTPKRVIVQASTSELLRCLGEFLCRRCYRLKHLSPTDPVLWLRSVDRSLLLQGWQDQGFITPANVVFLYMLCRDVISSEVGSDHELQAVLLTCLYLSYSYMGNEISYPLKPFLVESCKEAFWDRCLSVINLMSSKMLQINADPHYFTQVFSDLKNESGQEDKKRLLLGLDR

With `COc1ccc2c(c1)/C(=C/c1cnc[nH]1)C(=O)N2` [SU-9516], the result in assay [1] and in assay [3] was Active. The Activity in assay [2] is 30 - 60%.
Take `CCn1cnc2c(Nc3cccc(Cl)c3)nc(N[C@@H]3CCCC[C@@H]3N)nc21`: the Activity result in assay [4] is recorded as “<=30%”. Moreover, the half-inhibitory concentration (IC50) in assay [5] stood at 3 µM; in assay [6], 0.026 µM; in assay [7], 0.279 µM; in assay [8], 1.4 µM; in assay [9], 0.026 µM; in assay [10] it was 0.046 µM. The compound further came in with an IC50 in [11] of 0.147 µM.
Take `CCOC(=O)c1cnc2oc3ccc(O)cc3c2c1-c1ccccc1`: in assay [12], the outcome was inactive. The IC50 in assay [5] was greater than 20 µM; in [6], 14.3 µM; in assay [7], greater than 20 µM; in [8] it was greater than 20 µM; in [9], greater than 20 µM; in [10], 7.1 µM. Besides, the IC50 in assay [11] was greater than 20 µM.
Consider `Nc1n[nH]c2nc3ccccc3nc12` [QUINOXALINE1], for which the result in assay [13] was inactive. Also, the IC50 in assay [5] was greater than 20 µM; in [6] it was 5.6 µM; in [7], greater than 20 µM; in assay [8], 14.1 µM; in assay [9], 13.7 µM; in [10] it was 0.01 µM. Moreover, half-maximal inhibition in [11] (IC50) required 9.7 µM.
Take `Nc1cc(Nc2ccc(S(N)(=O)=O)cc2)ncn1`: in assay [14], the outcome was inactive. The IC50 in assay [5] was greater than 20 µM; in assay [6], 1.9 µM; in [7], greater than 20 µM; in assay [8], greater than 20 µM; in [9] it was 4.4 µM; in assay [10] it was 0.946 µM. This compound also displayed an IC50 in assay [11] of 5.3 µM.
Take `O=C1Nc2cc(Br)ccc2/C1=C1/Nc2ccccc2/C1=N\O` [6BIO]: the half-inhibitory concentration (IC50) in assay [7] amounted to 3.5 µM; in assay [8], 0.45 µM. Besides, the Activity result in assay [15] was “<=30%”.
In the case of `COc1ccc(CNc2nc(N(CCO)CCO)nc3c2ncn3C(C)C)cc1`, the IC50 in assay [5] is greater than 20 µM; in assay [7], 9.2 µM; in assay [8] it was 2.3 µM; in [9], 0.419 µM; in assay [11] it was 3.7 µM. For the same compound, in assay [2], the Activity result is given as “<=30%”.
`CCNc1cc(N[C@H]2CC[C@H](O)CC2)nc(Nc2ccc3c(ccn3Cc3ccccc3)c2)n1`: the result in [16] was Active. In addition, the IC50 in assay [7], in assay [8] and in assay [9] was greater than 10 µM each time. In addition, in assay [15], the Activity is listed as 30 - 60%.
Take `CN(C)C(=O)c1cc2cnc(Nc3ccc(N4CCNCC4)cn3)nc2n1C1CCCC1` [RIBOCICLIB]: the IC50 in assay [7] and in assay [9] was greater than 20 µM in each case.
Turning to `CC(=O)c1cnc2oc3ccc(O)cc3c2c1-c1ccccc1`, the outcome in assay [12] was inactive. Further, the half-inhibitory concentration (IC50) was greater than 20 µM in [5]; greater than 20 µM in [6]; greater than 20 µM in assay [7]; greater than 20 µM in assay [8]; 17.5 µM in [9]; greater than 20 µM in assay [10]. In assay [11], this compound showed an IC50 greater than 20 µM.
As to `CNC(=O)c1nn(C)c2c1C(C)(C)Cc1cnc(Nc3ccc(N4CCN(C)CC4)cc3)nc1-2` [MILCICLIB], the IC50 was found to be 0.59 µM in assay [6], 0.109 µM in [10] and 1.2 µM in assay [11]. Moreover, in [2], the Activity was 30 - 60%.
As for `O=C1Nc2ccc3ncsc3c2/C1=C/Nc1ccc(S(=O)(=O)Nc2ccccn2)cc1`, the IC50 turned out to be 0.139 µM in assay [5], 0.317 µM in assay [7], 0.007 µM in assay [9] and 0.049 µM in [11]. Also, the Activity in assay [2] is 30 - 60%.
Consider `COc1ccc(OC)c2c(=S)c3ccccc3[nH]c12`, for which the IC50 in [5], in assay [6], in assay [7], in assay [8], in [9] and in assay [10] was greater than 20 µM each time. This compound also had a half-maximal inhibitory concentration (IC50) in [11] greater than 20 µM. Besides, the result in assay [17] was Active.

One may read the IC50 as the concentration needed to halve the response being measured. High values mean a need for much substance, low ones inhibition by little substance.

These data come from ChEMBL document CHEMBL4308846, “How Selective Are Pharmacological Inhibitors of Cell-Cycle-Regulating Cyclin-Dependent Kinases?” (J Med Chem, 2018).
